| melting point | SMILES |
| --- | --- |
| 256 to 258 °C | O=C(Nc1ccc(-c2ccc(F)cc2)cc1-c1nnn[nH]1)Nc1ccccc1C(F)(F)F [Compound 3-19, N-(2-Trifluoromethyl-phenyl)-N′-[4′-fluoro-3-(1H-tetrazol-5-yl)-biphenyl-4-yl]-urea] |
| 255 to 257 °C | O=C(Nc1ccccc1Cl)Nc1ccc(-c2ccc(Cl)cc2)cc1-c1nnn[nH]1 [Compound 3-32, N-(2-Chloro-phenyl)-N′-[4′-chloro-3-(1H-tetrazol-5-yl)-biphenyl-4-yl]-urea] |
| 250 to 251 °C | O=C(Nc1cc(F)cc(F)c1)Nc1ccc(-c2ccc(Cl)cc2)cc1-c1nnn[nH]1 [Compound 3-5, N-(3,5-Difluoro-phenyl)-N′-[4′-chloro-3-(1H-tetrazol-5-yl)-biphenyl-4-yl]-urea] |
| 255 to 256 °C | O=C(Nc1ccccc1Br)Nc1ccc(-c2ccc(Cl)cc2)cc1-c1nnn[nH]1 [Compound 3-22, N-(2-Bromo-phenyl)-N′-[4′-chloro-3-(1H-tetrazol-5-yl)-biphenyl-4-yl]-urea] |
| 255 to 257 °C | Cc1ccc(-c2ccc(NC(=O)Nc3ccccc3Br)c(-c3nnn[nH]3)c2)cc1 [Compound 3-29, N-(2-Bromo-phenyl)-N′-[4′-methyl-3-(1H-tetrazol-5-yl)-biphenyl-4-yl]-urea] |
| 260 to 262 °C | Cc1ccc(-c2ccc(NC(=O)Nc3ccccc3F)c(-c3nnn[nH]3)c2)cc1 [Compound 3-27, N-(2-Fluoro-phenyl)-N′-[4′-methyl-3-(1H-tetrazol-5-yl)-biphenyl-4-yl]-urea] |
| 200 to 201 °C | COc1ccc(-c2ccc(NC(=O)Nc3cc(Cl)cc(Cl)c3)c(-c3nnn[nH]3)c2)cc1 [Compound 3-34, N-(3,5-Dichloro-phenyl)-N′-[4′-methoxy-3-(1H-tetrazol-5-yl)-biphenyl-4-yl]-urea] |
| 129 to 133 °C | COc1ccc(-c2ccc(NC(=O)Nc3cc(F)cc(F)c3)c(-c3nnn[nH]3)c2)cc1 [Compound 3-41, N-(3,5-Difluoro-phenyl)-N′-[4′-methoxy-3-(1H-tetrazol-5-yl)-biphenyl-4-yl]-urea] |
| 256 to 258 °C | O=C(Nc1ccccc1Br)Nc1ccc(-c2ccc(F)cc2)cc1-c1nnn[nH]1 [Compound 3-23, N-(2-Bromo-phenyl)-N′-[4′-fluoro-3-(1H-tetrazol-5-yl)-biphenyl-4-yl]-urea] |
| 242 to 243 °C | O=C(Nc1ccccc1Br)Nc1ccc(-c2ccc(C(F)(F)F)cc2)cc1-c1nnn[nH]1 [Compound 3-20, N-(2-Bromo-phenyl)-N′-[3-(1H-tetrazol-5-yl)-4′-trifluoromethyl-biphenyl-4-yl]-urea] |
| 254 to 255 °C | O=C(Nc1ccccc1Cl)Nc1ccc(-c2ccc(C(F)(F)F)cc2)cc1-c1nnn[nH]1 [Compound 3-31, N-(2-Chloro-phenyl)-N′-[3-(1H-tetrazol-5-yl)-4′-trifluoromethyl-biphenyl-4-yl]-urea] |
| 254 to 255 °C | O=C(Nc1ccc(F)c(C(F)(F)F)c1)Nc1ccc(-c2cccc(C(F)(F)F)c2)cc1-c1nnn[nH]1 [Compound 3-45, N-(4-Fluoro-3-trifluoromethyl-phenyl)-N′-[3-(1H-tetrazol-5-yl)-3′-trifluoromethyl-biphenyl-4-yl]-urea] |
| 240 to 243 °C | O=C(Nc1ccc(-c2ccc(C(F)(F)F)cc2)cc1-c1nnn[nH]1)Nc1ccccc1C(F)(F)F [Compound 3-18, N-(2-Trifluoromethyl-phenyl)-N′-[3-(1H-tetrazol-5-yl)-4′-trifluoromethyl-biphenyl-4-yl]-urea] |
| 242 to 243 °C | O=C(Nc1ccc(Cl)c(C(F)(F)F)c1)Nc1ccc(-c2ccc(Cl)cc2)cc1-c1nnn[nH]1 [Compound 3-3, N-(4-Chloro-3-trifluoromethyl-phenyl)-N′-[4′-chloro-3-(1H-tetrazol-5-yl)-biphenyl-4-yl]-urea] |

The next lines start with the compound.

| SMILES | melting point |
| --- | --- |
| O=C(Nc1cc(Cl)cc(Cl)c1)Nc1ccc(-c2ccc(Cl)cc2)cc1-c1nnn[nH]1 [Compound 3-4, N-(3,5-Dichloro-phenyl)-N′-[4′-chloro-3-(1H-tetrazol-5-yl)-biphenyl-4-yl]-urea] | 231 to 234 °C |
| O=C(Nc1cc(C(F)(F)F)cc(C(F)(F)F)c1)Nc1ccc(-c2ccc(OC(F)(F)F)cc2)cc1-c1nnn[nH]1 [Compound 3-37, N-(3,5-Bis-trifluoromethyl-phenyl)-N′-[3-(1H-tetrazol-5-yl)-4′-trifluoromethoxy-biphenyl-4-yl]-urea] | 238 to 240 °C |
| O=C(Nc1ccc(-c2ccc(Cl)cc2)cc1-c1nnn[nH]1)Nc1ccccc1C(F)(F)F [Compound 3-21, N-(2-Trifluoromethyl-phenyl)-N′-[4′-chloro-3-(1H-tetrazol-5-yl)-biphenyl-4-yl]-urea] | 290 to 292 °C |
| O=C(Nc1cc(C(F)(F)F)cc(C(F)(F)F)c1)Nc1ccc(-c2ccc(Cl)cc2)cc1-c1nnn[nH]1 [Compound 3-14, N-(3,5-Bis-trifluoromethyl-phenyl)-N′-[4′-chloro-3-(1H-tetrazol-5-yl)-biphenyl-4-yl]-urea] | 230 to 233 °C |
| O=C(Nc1cc(F)cc(F)c1)Nc1ccc(-c2cccc(C(F)(F)F)c2)cc1-c1nnn[nH]1 [Compound 3-38, N-(3,5-Difluoro-phenyl)-N′-[3-(1H-tetrazol-5-yl)-3′-trifluoromethyl-biphenyl-4-yl]-urea] | 255 to 257 °C |
| O=C(Nc1cc(F)cc(F)c1)Nc1ccc(-c2ccc(F)cc2)c(-c2nnn[nH]2)c1 [Compound 3-11, N-(3,5-Difluoro-phenyl)-N′-[4′-fluoro-2-(1H-tetrazol-5-yl)-biphenyl-4-yl]-urea] | 255 to 256 °C |
| O=C(Nc1ccc(Cl)cc1)Nc1ccc(-c2ccc(C(F)(F)F)cc2)cc1-c1nnn[nH]1 [Compound 3-44, N-(4-Chloro-phenyl)-N′-[3-(1H-tetrazol-5-yl)-4′-trifluoromethyl-biphenyl-4-yl]-urea] | 232 to 234 °C |
| COc1ccc(-c2ccc(NC(=O)Nc3cc(C(F)(F)F)cc(C(F)(F)F)c3)c(-c3nnn[nH]3)c2)cc1 [Compound 3-42, N-(3,5-Bis-trifluoromethyl-phenyl)-N′-[4′-methoxy-3-(1H-tetrazol-5-yl)-biphenyl-4-yl]-urea] | 219 to 221 °C |
| O=C(Nc1cc(Cl)cc(Cl)c1)Nc1ccc(-c2ccc(OC(F)(F)F)cc2)cc1-c1nnn[nH]1 [Compound 3-36, N-(3,5-Dichloro-phenyl)-N′-[3-(1H-tetrazol-5-yl)-4′-trifluoromethoxy-biphenyl-4-yl]-urea] | 224 to 225 °C |
| Cc1ccc(-c2ccc(NC(=O)Nc3ccccc3C(F)(F)F)c(-c3nnn[nH]3)c2)cc1 [Compound 3-30, N-(2-Trifluoromethyl-phenyl)-N′-[4′-methyl-3-(1H-tetrazol-5-yl)-biphenyl-4-yl]-urea] | 259 to 261 °C |
| O=C(Nc1ccccc1Cl)Nc1ccc(-c2ccc(F)cc2)cc1-c1nnn[nH]1 [Compound 3-33, N-(2-Chloro-phenyl)-N′-[4′-fluoro-3-(1H-tetrazol-5-yl)-biphenyl-4-yl]-urea] | 255 to 257 °C |
| O=C(Nc1ccc(Cl)c(C(F)(F)F)c1)Nc1ccc(-c2ccc(F)cc2)cc1-c1nnn[nH]1 [Compound 3-9, N-(4-Chloro-3-trifluoromethyl-phenyl)-N′-[4′-fluoro-3-(1H-tetrazol-5-yl)-biphenyl-4-yl]-urea] | 247 to 249 °C |
| O=C(Nc1ccc(F)c(C(F)(F)F)c1)Nc1ccc(-c2ccc(F)cc2)cc1-c1nnn[nH]1 [Compound 3-17, N-(4-Fluoro-3-trifluoromethyl-phenyl)-N′-[4′-fluoro-3-(1H-tetrazol-5-yl)-biphenyl-4-yl]-urea] | 253 to 254 °C |
| O=C(Nc1ccccc1F)Nc1ccc(-c2ccc(Cl)cc2)cc1-c1nnn[nH]1 [Compound 3-25, N-(2-Fluoro-phenyl)-N′-[4′-chloro-3-(1H-tetrazol-5-yl)-biphenyl-4-yl]-urea] | 257 to 259 °C |
| O=C(Nc1ccc(F)c(C(F)(F)F)c1)Nc1ccc(-c2ccc(C(F)(F)F)cc2)cc1-c1nnn[nH]1 [Compound 3-12, N-(4-Fluoro-3-trifluoromethyl-phenyl)-N′-[3-(1H-tetrazol-5-yl)-4′-trifluoromethyl-biphenyl-4-yl]-urea] | 247 to 249 °C |
| Cc1ccc(-c2ccc(NC(=O)Nc3ccccc3Cl)c(-c3nnn[nH]3)c2)cc1 [Compound 3-28, N-(2-Chloro-phenyl)-N′-[4′-methyl-3-(1H-tetrazol-5-yl)-biphenyl-4-yl]-urea] | 261 to 263 °C |
| O=C(Nc1ccccc1F)Nc1ccc(-c2ccc(F)cc2)cc1-c1nnn[nH]1 [Compound 3-26, N-(2-Fluoro-phenyl)-N′-[4′-fluoro-3-(1H-tetrazol-5-yl)-biphenyl-4-yl]-urea] | 263 to 264 °C |
| O=C(Nc1cccc(Br)c1)Nc1ccc(-c2ccc(C(F)(F)F)cc2)cc1-c1nnn[nH]1 [Compound 3-43, N-(3-Bromo-phenyl)-N′-[3-(1H-tetrazol-5-yl)-4′-trifluoromethyl-biphenyl-4-yl]-urea] | 203 to 210 °C |
| O=C(Nc1cccc(C(F)(F)F)c1)Nc1ccc(-c2ccc(Cl)cc2)cc1-c1nnn[nH]1 [Compound 3-2, N-(3-Trifluoromethyl-phenyl)-N′-[4′-chloro-3-(1H-tetrazol-5-yl)-biphenyl-4-yl]-urea] | 253 to 254 °C |
| O=C(Nc1cc(Cl)cc(Cl)c1)Nc1ccc(-c2ccc(F)cc2)cc1-c1nnn[nH]1 [Compound 3-10, N-(3,5-Dichloro-phenyl)-N′-[4′-fluoro-3-(1H-tetrazol-5-yl)-biphenyl-4-yl]-urea] | 241 to 243 °C |
| O=C(Nc1cc(C(F)(F)F)cc(C(F)(F)F)c1)Nc1ccc(-c2cccc(C(F)(F)F)c2)cc1-c1nnn[nH]1 [Compound 3-40, N-(3,5-Bis-trifluoromethyl-phenyl)-N′-[3-(1H-tetrazol-5-yl)-3′-trifluoromethyl-biphenyl-4-yl]-urea] | 250 to 252 °C |
| O=C(Nc1ccc(F)c(C(F)(F)F)c1)Nc1ccc(-c2ccc(Cl)cc2)cc1-c1nnn[nH]1 [Compound 3-15, N-(4-Fluoro-3-trifluoromethyl-phenyl)-N′-[4′-chloro-3-(1H-tetrazol-5-yl)-biphenyl-4-yl]-urea] | 243 to 245 °C |

From patent publication US20070293553A1, “Diphenylurea Derivatives Useful As Potassium Channel Activators” (priority 2004, published 2007)
